Measurements: article PMC6353875, “The EZH2 SANT1 domain is a histone reader providing sensitivity to the modification state of the H4 tail” (Scientific Reports, 2019)
“Also recorded” adds a separate entry of the source.

Key:
[1] = test system: SRM-SANT1; experiment: Biotinylated histone peptide pulldown; type: binding, human; details: for effect of modification on SRM-SANT1 binding (pulldown): 1 μg SRM-SANT1 with 1 μg Biotin-tagged H4 peptide, overnight 4 °C, 150 mM NaCl, 50 mM Tris (pH 6.5), 3 mM DTT, streptavidin resin, coomassie, ImageJ, triplicate, vs corresponding unmodified peptide, p-value < 0.05; for effect of H4 modification on binding of SANT1 to H4 (abstract summary): summary statement in abstract
Excerpt: (§1) The complete human EZH2 cDNA was obtained from OpenBiosystems (GE Healthcare, Accession #:BC010858). EZH2 SANT1 (residues 159–251) and SRM-SANT1 (residues 141–251) were subcloned into a pDEST15 (N-terminal GST-tag) expression vector using the Gateway Recombination cloning method (Invitrogen, ThermoScientific) with a PreScission Protease cleavage site engineered between the GST-tag and the N-terminus of EZH2 SRM-SANT1. Mutants were generated in the 141–251 construct using site-directed mutagenesis (Q5 mutagenesis kit, New England Biolabs).
(§2) For purification, cell pellets were thawed on ice and lysed by emulsiflex in a lysis buffer containing 150 mM NaCl, 50 mM Tris (pH 6.5), 3 mM DTT, 0.1% Triton X-100 and DNaseI. Lysate was cleared at 18,000 g for 1 hour at 4 °C. The soluble supernatant was incubated with glutathione agarose resin (ThermoFisher Scientific) and washed extensively with a buffer containing 900 mM NaCl, 50 mM Tris (pH 6.5) and 3 mM DTT. The GST-tag was cleaved by incubation with PreScission Protease overnight and SRM-SANT1 was further purified by FPLC using […] over a Source15S column and size exclusion chromatography over a superdex 75 column. The final buffer contained 150 mM NaCl, 50 mM Tris (pH 6.5), 3 mM DTT, with or without 5 mM EDTA.
Biotinylated unmodified histone H4 (1–23, SKU:12-0029), unmodified H4 (11–27, SKU:12-0035), H4K16ac (1–23, SKU:12-0033), H4K20ac (1–24, SKU:12-0052) and H4K20me3 (11–27, SKU:12-0038) peptides were obtained from EpiCypher. 1 μg of purified SRM-SANT1 was incubated with 1 μg of Biotin-tagged H4 peptides unmodified or containing single modifications. Reactions were incubated overnight rocking end over end at 4 °C in a binding buffer containing 150 mM NaCl, 50 mM Tris (pH 6.5), 3 mM DTT. Streptavidin sepharose resin (25 μL of 50% slurry, GE Life Sciences) was added to each reaction and rocked end over end at 4 °C for two hours. The reactions were then spun at 2500 × g, supernatant decanted and beads washed with 500 μL of the binding buffer four times. After the final wash, beads were resuspended in 5x SDS loading dye, ran on a 4–20% gradient gel and visualized using coomassie staining. Gels were imaged using an ImageQuant LAS 4000 imager. Quantification of triplicate pull down experiments was performed using ImageJ[59].

[2] = target: T1, EZH2 SRM-SANT1 (residues 141–251) (Homo sapiens, UniProt Q15910); experiment: NMR titration (1H-15N HSQC) of SRM-SANT1 with histone peptides; type: binding; details: for chemical shift perturbations (CSPs) upon peptide addition: 1H-15N HSQC overlay, 25 °C, 0.05–0.10 mM 15N-SRM-SANT1, increasing concentrations of peptide; for effect of H4K16 acetylation on interaction/binding (NMR): 1H-15N HSQC titration of SRM-SANT1 with H4K16ac(1–21)
T1 construct: All additional studies were performed with the SRM-SANT1 construct containing residues 141–251; GST (N, cleaved yes); made in house; host or cells: E. coli Rosetta2 (DE3) pLysS
Excerpt: as §1, §2
Biotinylated histone H4K16ac (1–21, AS-64847-1) was obtained from Anaspec. All histone peptides were dissolved in H2O at a concentration of 20 mM, and the pH adjusted to ~7.0. DNA oligos were obtained from IDT. The DNA was annealed by mixing equimolar amounts of single stranded oligos. DNA was heated to 95 °C for 10 minutes before allowing to cool overnight. The annealed DNA was further purified by size exclusion chromatography over a superdex 75 column in a buffer containing 150 mM NaCl, 50 mM Tris (pH 6.5), 3 mM DTT, with 5 mM EDTA. Titrations were performed by collecting ^15N-HSQC spectra on 0.05–0.10 mM ^15N-EZH2 SRM-SANT1 while titrating in increasing concentrations of the respective ligands. Titration experiments were performed at 25 °C on a Bruker Avance II 800 MHz NMR spectrometer equipped with a 5 mm triple resonance cryoprobe. Data was processed and analyzed using NMRPipe and CcpNmr[53],[54].
Kd values were determined for all individual residues with significant Δδ in each individual titration.

T1 sequence (Q15910 141-251): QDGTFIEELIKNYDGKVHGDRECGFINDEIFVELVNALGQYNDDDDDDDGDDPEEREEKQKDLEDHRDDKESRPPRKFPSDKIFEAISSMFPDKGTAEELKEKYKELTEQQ

effect of H4 modification on binding of SANT1 to H4 (abstract summary) [1] | Substance | effect of modification on SRM-SANT1 binding (pulldown) [1] | chemical shift perturbations (CSPs) upon peptide addition [2] | other results
abrogate binding of SANT1 to H4 | H4K20me3: H4K20me3 (11–27, SKU:12-0038), biotinylated peptide from EpiCypher | significant decreases in SRM-SANT1 binding | – | –
abrogate binding of SANT1 to H4 | H4K20ac: H4K20ac (1–24, SKU:12-0052), biotinylated peptide from EpiCypher | decreased binding, though not statistically significantly | – | –
abrogate binding of SANT1 to H4 | H4K16ac: H4K16ac (1–23, SKU:12-0033), biotinylated peptide from EpiCypher; pulldown | significant decreases in SRM-SANT1 binding | – | –
– | H4(1–10): unmodified histone H4 (1–10), custom synthesized by GenScript (SGRGKGGKGL) | – | very minor CSPs throughout SANT1, indicative of non-specific interactions | –
– | H4K16ac(1–21): Biotinylated histone H4K16ac (1–21, AS-64847-1), obtained from Anaspec; NMR titration | – | – | effect of H4K16 acetylation on interaction/binding (NMR) [2]: abrogates binding; effect of H4K16 acetylation on interaction/binding (NMR) ([2]; listed as H4K16ac peptide): substantially abrogates interaction with the H4 tail
– | H4(11–21): unmodified histone H4 (11–21), custom synthesized by GenScript | – | confirms binding to the basic patch of H4; also recorded: very similar CSPs as was observed for H4(1–21) | fold weaker binding (Kd) than H4 tail (1–21) ([2]; ratio of Kd to that of H4 (1–21)): ~ 2 x
